ChEMBL document CHEMBL4049450, “Discovery of 5-Azaindazole (GNE-955) as a Potent Pan-Pim Inhibitor with Optimized Bioavailability” (J Med Chem, 2017)
Values after ≈ are worked out from the molar mass of the structure shown.

Tests used:
[1] = Kinetic solubility of compound at pH 7.4; conditions: buffer
[2] = Apparent permeability across apical to basolateral side in MDCK cells; type: ADME, cell-based, Canis lupus familiaris; conditions: dog
[3] = Metabolic stability in rat intestinal microsomes assessed as compound remaining after 60 mins in presence of UDPGA; type: ADME, Intestine, Microsome; conditions: read-out: Stability
[4] = system: Plasma; test: Drug level in rat plasma treated with N4-Phenylpyrimidine-2,4-diamine at 5 mg/kg, po; type: ADME, organism-based; conditions: in vivo
[5] = Oral bioavailability in rat at 5 mg/kg; type: ADME, organism-based; conditions: in vivo
[6] = Clearance in rat at 1 mg/kg, iv; type: ADME, organism-based; conditions: in vivo
[7] = Metabolic stability in rat intestinal microsomes assessed as compound remaining after 60 mins in absence of NADPH/UDPGA; type: ADME, Intestine, Microsome; conditions: intestinal microsomes, read-out: Stability
[8] = Metabolic stability in rat intestinal microsomes assessed as compound remaining after 60 mins in presence of NADPH/UDPGA; type: ADME, Intestine, Microsome; conditions: intestinal microsomes, read-out: Stability
[9] = system: Plasma; test: Drug metabolism in rat assessed as M1 metabolite formation in plasma at 5 mg/kg, po; type: ADME, organism-based; conditions: in vivo
[10] = Clearance in rat liver microsomes; type: ADME, microsome
[11] = Efflux ratio of apparent permeability in MDCK cells; conditions: dog
[12] = system: Plasma; test: Drug metabolism in rat assessed as 6-((R)-1-(6-(5-(1-ethyl-1H-pyrazol-4-yl)-1H-pyrazolo[3,4-c]pyridin-3-yl)pyridin-2-yl)piperidin-3-ylamino)-3,4,5-trihydroxytetrahydro-2H-pyran-2-carboxylic acid metabolite formation in plasma at 5 mg/kg, po; type: ADME, organism-based; conditions: in vivo
[13] = Clearance in rat hepatocytes; type: ADME, cell-based, Hepatocyte
[14] = Metabolic stability in rat intestinal microsomes assessed as compound remaining after 60 mins in presence of NADPH; type: ADME, Intestine, Microsome; conditions: read-out: Stability

Compound: CCn1cc(-c2cc3c(-c4cccc(N5CCC[C@@H](N)C5)n4)n[nH]c3cn2)cn1
- solubility kinetic [1]: 116 µM (≈ 45.1 µg/mL)
- Papp A→B [2]: 0.4 ×10⁻⁶ cm/s
- remaining at 1 h [3]: 15%
- Drug metabolism [4]: Metabolite_Detected
- bioavailability [5]: 1%
- clearance [6]: 8 mL/min/kg
- remaining at 1 h [7]: 96%
- remaining at 1 h [8]: 30%
- Drug metabolism [9]: Metabolite_Detected
- CLhep predicted [10]: 24 mL/min/kg
- efflux ratio [11]: 56
- Drug metabolism [12]: Metabolite_Detected
- CLhep predicted [13]: 14 mL/min/kg
- remaining at 1 h [14]: 83%
